Positions of bridges follow the written chain, without caps; N, C: chain ends. Non-standard residues stand in square brackets, D forms with d. Residues, ends and D or L forms follow the SMILES beside them. Bip(4'-NHAc) = CC(=O)Nc1ccc(-c2ccc(C[C@H](N)C(=O)O)cc2)cc1; Phe(4-(4-pyridyl)) = N[C@@H](Cc1ccc(-c2ccncc2)cc1)C(=O)O; Phe(4-(3-Py)) = N[C@@H](Cc1ccc(-c2cccnc2)cc1)C(=O)O; Ala(morpholin-4-yl) = N[C@@H](CN1CCOCC1)C(=O)O; Bip = N[C@@H](Cc1ccc(-c2ccccc2)cc1)C(=O)O; Hyp = O=C(O)[C@@H]1C[C@@H](O)CN1; 4Pal = N[C@@H](Cc1ccncc1)C(=O)O; Tic = O=C(O)[C@@H]1Cc2ccccc2CN1; Aze = O=C(O)[C@@H]1CCN1; Sar = CNCC(=O)O
Biological target: TNFα (Homo sapiens, UniProt P01375)
Sequence (P01375 77-233 limits assumed): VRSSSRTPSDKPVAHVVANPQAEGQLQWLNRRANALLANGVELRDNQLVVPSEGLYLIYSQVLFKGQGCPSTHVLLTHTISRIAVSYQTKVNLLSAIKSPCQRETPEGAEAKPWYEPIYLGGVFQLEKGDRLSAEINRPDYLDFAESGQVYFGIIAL
Experiment: TNF-Induced HEK-Blue Assay
Assay type: cell-based
Conditions: HEK-Blue-CD40L cells, NF-kB-driven secreted alkaline phosphatase reporter; TNFα 0.5 ng/ml; 18 h; read-out: TNF induced HEK-Blue assay IC50 value

First: CC(C)C[C@@H]1NC(=O)[C@H](Cc2ccc(O)cc2)NC(=O)[C@H](C(C)C)NC(=O)[C@@H]2C[C@@H](O)CN2C(=O)[C@H](C(C)C)NC(=O)[C@H](CCCNC(=N)N)NC(=O)[C@H](CC(=O)O)NC(=O)[C@H](Cc2ccc(O)cc2)NC(=O)CN(C)C(=O)[C@H](Cc2ccc(-c3ccccc3)cc2)NC(=O)[C@H](Cc2ccc(-c3ccccc3)cc2)NC(=O)[C@H](CN2CCOCC2)NC(=O)CSC[C@@H](C(=O)NCC(N)=O)NC1=O [Example 73] ({CH2CO}-[Ala(morpholin-4-yl)][Bip][Bip][Sar]YDRV[Hyp]VYLCG-NH2; thioether N-13)
Second: CC(C)C[C@@H]1NC(=O)[C@H](Cc2ccc(O)cc2)NC(=O)[C@H](C(C)C)NC(=O)[C@@H]2C[C@@H](O)CN2C(=O)[C@H](C(C)C)NC(=O)[C@@H](CCCNC(=N)N)NC(=O)[C@H](CC(=O)O)NC(=O)[C@H](Cc2ccc(O)cc2)NC(=O)CN(C)C(=O)[C@H](Cc2ccc(-c3ccccc3)cc2)NC(=O)[C@H](Cc2ccc(-c3ccccc3)cc2)NC(=O)[C@H](CN2CCOCC2)NC(=O)CSC[C@@H](C(=O)NCC(N)=O)NC1=O [Example 78] ({CH2CO}-[Ala(morpholin-4-yl)][Bip][Bip][Sar]YD[dR]V[Hyp]VYLCG-NH2; thioether N-13)
The IC50 of the first is higher: 200 to 2000 nM for the first, 50 to 200 nM for the second.

`CC(C)C[C@@H]1NC(=O)[C@H](Cc2ccc(O)cc2)NC(=O)[C@H](C(C)C)NC(=O)[C@@H]2Cc3ccccc3CN2C(=O)[C@H](C(C)C)NC(=O)[C@H](CCCNC(=N)N)NC(=O)[C@H](CC(=O)O)NC(=O)[C@H](Cc2ccc(O)cc2)NC(=O)CN(C)C(=O)[C@H](Cc2ccc(-c3ccccc3)cc2)NC(=O)[C@H](Cc2ccc(-c3ccccc3)cc2)NC(=O)[C@H](CN2CCOCC2)NC(=O)CSC[C@@H](C(=O)NCC(N)=O)NC1=O` [Example 74] ({CH2CO}-[Ala(morpholin-4-yl)][Bip][Bip][Sar]YDRV[Tic]VYLCG-NH2; thioether N-13) and `CC(C)C[C@@H]1NC(=O)[C@H](Cc2ccc(O)cc2)NC(=O)[C@H](C(C)C)NC(=O)[C@@H]2CCN2C(=O)[C@H](C(C)C)NC(=O)[C@H](CCCNC(=N)N)NC(=O)[C@H](CC(=O)O)NC(=O)[C@H](Cc2ccc(O)cc2)NC(=O)CN(C)C(=O)[C@H](Cc2ccc(-c3ccccc3)cc2)NC(=O)[C@H](Cc2ccc(-c3ccccc3)cc2)NC(=O)[C@H](CN2CCOCC2)NC(=O)CSC[C@@H](C(=O)NCC(N)=O)NC1=O` [Example 75] ({CH2CO}-[Ala(morpholin-4-yl)][Bip][Bip][Sar]YDRV[Aze]VYLCG-NH2; thioether N-13) fall in the same range of IC50: 200 to 2000 nM for the first, 200 to 2000 nM for the second.

First: CC(C)C[C@@H]1NC(=O)[C@H](CCCNC(=N)N)NC(=O)[C@H](C(C)C)NC(=O)[C@@H]2CCCN2C(=O)[C@H](C(C)C)NC(=O)[C@@H](CCCNC(=N)N)NC(=O)[C@H](CC(=O)O)NC(=O)[C@H](Cc2ccc(O)cc2)NC(=O)CN(C)C(=O)[C@H](Cc2ccc(-c3ccccc3)cc2)NC(=O)[C@H](Cc2ccc(-c3ccccc3)cc2)NC(=O)[C@H](CN2CCOCC2)NC(=O)CSC[C@@H](C(=O)NCC(N)=O)NC1=O [Example 76] ({CH2CO}-[Ala(morpholin-4-yl)][Bip][Bip][Sar]YD[dR]VPVRLCG-NH2; thioether N-13)
Second: CC(C)C[C@@H]1NC(=O)[C@H](Cc2ccc(O)cc2)NC(=O)[C@H](C(C)C)NC(=O)[C@@H]2CCN2C(=O)[C@H](C(C)C)NC(=O)[C@@H](CCCNC(=N)N)NC(=O)[C@H](CC(=O)O)NC(=O)[C@@H]2CCCN2C(=O)CN(C)C(=O)[C@H](Cc2ccc(-c3ccccc3)cc2)NC(=O)[C@H](Cc2ccc(-c3ccccc3)cc2)NC(=O)[C@H](CN2CCOCC2)NC(=O)CSC[C@@H](C(=O)NCC(N)=O)NC1=O [Example 82] ({CH2CO}-[Ala(morpholin-4-yl)][Bip][Bip][Sar]PD[dR]V[Aze]VYLCG-NH2; thioether N-13)
The IC50 of the first is lower: under 50 nM for the first, 200 to 2000 nM for the second.

`CC(C)C[C@@H]1NC(=O)[C@H](Cc2ccc(O)cc2)NC(=O)[C@H](C(C)C)NC(=O)[C@@H]2CCCN2C(=O)[C@H](C(C)C)NC(=O)[C@@H](CCCNC(=N)N)NC(=O)[C@H](CC(=O)O)NC(=O)[C@@H]2CCCN2C(=O)CN(C)C(=O)[C@H](Cc2ccc(-c3ccccc3)cc2)NC(=O)[C@H](Cc2ccc(-c3ccccc3)cc2)NC(=O)[C@H](CN2CCOCC2)NC(=O)CSC[C@@H](C(=O)NCC(N)=O)NC1=O` [Example 77] ({CH2CO}-[Ala(morpholin-4-yl)][Bip][Bip][Sar]PD[dR]VPVYLCG-NH2; thioether N-13) and `CC(C)C[C@@H]1NC(=O)[C@H](Cc2ccc(O)cc2)NC(=O)[C@H](C(C)C)NC(=O)[C@@H]2C[C@@H](O)CN2C(=O)[C@H](C(C)C)NC(=O)[C@@H](CCCNC(=N)N)NC(=O)[C@H](CC(=O)O)NC(=O)[C@@H]2CCCN2C(=O)CN(C)C(=O)[C@H](Cc2ccc(-c3ccccc3)cc2)NC(=O)[C@H](Cc2ccc(-c3ccccc3)cc2)NC(=O)[C@H](CN2CCOCC2)NC(=O)CSC[C@@H](C(=O)NCC(N)=O)NC1=O` [Example 80] ({CH2CO}-[Ala(morpholin-4-yl)][Bip][Bip][Sar]PD[dR]V[Hyp]VYLCG-NH2; thioether N-13) fall in the same range of IC50: 200 to 2000 nM for the first, 200 to 2000 nM for the second.

First: CC(C)C[C@@H]1NC(=O)[C@H](Cc2ccc(O)cc2)NC(=O)[C@H](C(C)C)NC(=O)[C@@H]2CCN2C(=O)[C@H](C(C)C)NC(=O)[C@@H](CCCNC(=N)N)NC(=O)[C@H](CC(=O)O)NC(=O)[C@H](Cc2ccc(O)cc2)NC(=O)CN(C)C(=O)[C@H](Cc2ccc(-c3ccccc3)cc2)NC(=O)[C@H](Cc2ccc(-c3ccccc3)cc2)NC(=O)[C@H](CN2CCOCC2)NC(=O)CSC[C@@H](C(=O)NCC(N)=O)NC1=O [Example 79] ({CH2CO}-[Ala(morpholin-4-yl)][Bip][Bip][Sar]YD[dR]V[Aze]VYLCG-NH2; thioether N-13)
Second: CC(C)C[C@@H]1NC(=O)[C@H](Cc2ccc(O)cc2)NC(=O)[C@H](C(C)C)NC(=O)[C@@H]2CCCN2C(=O)[C@H](CC(N)=O)NC(=O)[C@H](CCCNC(=N)N)NC(=O)[C@H](CC(=O)O)NC(=O)[C@H](Cc2ccc(O)cc2)NC(=O)CN(C)C(=O)[C@H](Cc2ccc(-c3ccccc3)cc2)NC(=O)[C@H](Cc2ccc(-c3ccccc3)cc2)NC(=O)[C@H](CN2CCOCC2)NC(=O)CSC[C@@H](C(=O)NCC(N)=O)NC1=O [Example 83] ({CH2CO}-[Ala(morpholin-4-yl)][Bip][Bip][Sar]YDRNPVYLCG-NH2; thioether N-13)
The IC50 of the first is lower: under 50 nM for the first, 50 to 200 nM for the second. The first is the more potent here.

`CC(C)C[C@@H]1NC(=O)[C@H](Cc2ccc(O)cc2)NC(=O)[C@H](C(C)C)NC(=O)[C@@H]2Cc3ccccc3CN2C(=O)[C@H](C(C)C)NC(=O)[C@@H](CCCNC(=N)N)NC(=O)[C@H](CC(=O)O)NC(=O)[C@@H]2CCCN2C(=O)CN(C)C(=O)[C@H](Cc2ccc(-c3ccccc3)cc2)NC(=O)[C@H](Cc2ccc(-c3ccccc3)cc2)NC(=O)[C@H](CN2CCOCC2)NC(=O)CSC[C@@H](C(=O)NCC(N)=O)NC1=O` [Example 81] ({CH2CO}-[Ala(morpholin-4-yl)][Bip][Bip][Sar]PD[dR]V[Tic]VYLCG-NH2; thioether N-13) and `CC(C)[C@@H]1NC(=O)[C@H](CCCNC(=N)N)NC(=O)[C@H](C(C)C)NC(=O)[C@@H]2CCCN2C(=O)[C@H](C(C)C)NC(=O)[C@H](CCCNC(=N)N)NC(=O)[C@H](CC(=O)O)NC(=O)[C@@H]2CCCN2C(=O)CN(C)C(=O)[C@H](Cc2ccc(-c3ccccc3)cc2)NC(=O)[C@H](Cc2ccc(-c3ccncc3)cc2)NC(=O)[C@H](CN2CCOCC2)NC(=O)CSC[C@@H](C(=O)NCC(N)=O)NC1=O` [Example 87] ({CH2CO}-[Ala(morpholin-4-yl)][Phe(4-(4-pyridyl))][Bip][Sar]PDRVPVRVCG-NH2; thioether N-13) fall in the same range of IC50: 50 to 200 nM for the first, 50 to 200 nM for the second.

Compared with `CC(=O)Nc1ccc(-c2ccc(C[C@@H]3NC(=O)[C@H](CN4CCOCC4)NC(=O)CSC[C@@H](C(=O)NCC(N)=O)NC(=O)[C@H](C(C)C)NC(=O)[C@H](CCCNC(=N)N)NC(=O)[C@H](C(C)C)NC(=O)[C@@H]4CCCN4C(=O)[C@H](C(C)C)NC(=O)[C@@H](CCCNC(=N)N)NC(=O)[C@H](CC(=O)O)NC(=O)[C@@H]4CCCN4C(=O)CN(C)C(=O)[C@H](Cc4ccc(-c5ccccc5)cc4)NC3=O)cc2)cc1` [Example 85] ({CH2CO}-[Ala(morpholin-4-yl)][Bip(4'-NHAc)][Bip][Sar]PD[dR]VPVRVCG-NH2; thioether N-13), `CC(=O)Nc1ccc(-c2ccc(C[C@@H]3NC(=O)[C@H](Cc4ccc(-c5ccccc5)cc4)NC(=O)[C@H](CN4CCOCC4)NC(=O)CSC[C@@H](C(=O)NCC(N)=O)NC(=O)[C@H](C(C)C)NC(=O)[C@H](CCCNC(=N)N)NC(=O)[C@H](C(C)C)NC(=O)[C@@H]4CCCN4C(=O)[C@H](C(C)C)NC(=O)[C@H](CCCNC(=N)N)NC(=O)[C@H](CC(=O)O)NC(=O)[C@@H]4CCCN4C(=O)CN(C)C3=O)cc2)cc1` [Example 89] ({CH2CO}-[Ala(morpholin-4-yl)][Bip][Bip(4'-NHAc)][Sar]PDRVPVRVCG-NH2; thioether N-13) is lower in IC50: 200 to 2000 nM for the first, 50 to 200 nM for the second. The second is the more potent here.

First: CC(C)[C@@H]1NC(=O)[C@H](CCCNC(=N)N)NC(=O)[C@H](C(C)C)NC(=O)[C@@H]2CCCN2C(=O)[C@H](C(C)C)NC(=O)[C@H](CCCNC(=N)N)NC(=O)[C@H](CC(=O)O)NC(=O)[C@@H]2CCCN2C(=O)CN(C)C(=O)[C@H](Cc2ccc(-c3ccccc3)cc2)NC(=O)[C@H](Cc2ccncc2)NC(=O)[C@H](CN2CCOCC2)NC(=O)CSC[C@@H](C(=O)NCC(N)=O)NC1=O [Example 86] ({CH2CO}-[Ala(morpholin-4-yl)][4Pal][Bip][Sar]PDRVPVRVCG-NH2; thioether N-13)
Second: CC(C)[C@@H]1NC(=O)[C@H](CCCNC(=N)N)NC(=O)[C@H](C(C)C)NC(=O)[C@@H]2CCCN2C(=O)[C@H](C(C)C)NC(=O)[C@H](CCCNC(=N)N)NC(=O)[C@H](CC(=O)O)NC(=O)[C@@H]2CCCN2C(=O)CN(C)C(=O)[C@H](Cc2ccc(-c3ccccc3)cc2)NC(=O)[C@H](Cc2ccc(-c3cccnc3)cc2)NC(=O)[C@H](CN2CCOCC2)NC(=O)CSC[C@@H](C(=O)NCC(N)=O)NC1=O [Example 88] ({CH2CO}-[Ala(morpholin-4-yl)][Phe(4-(3-Py))][Bip][Sar]PDRVPVRVCG-NH2; thioether N-13)
The IC50 of the first is lower: 50 to 200 nM for the first, 200 to 2000 nM for the second. The first is the more potent here.

Source: patent US20250145665A1, “MACROCYCLIC PEPTIDES USEFUL AS MODULATORS OF TNF ALPHA” (Bristol-Myers Squibb Company, priority 2023, published 2025)
